Assay results: patent US4322346A, “5H-2,3-Benzodiazepine derivatives” (priority 1978, dated 1982)

Legend:
Type in all cases: in vivo
mice [1] = assay: General behaviour of mice; settings: 100 mg/kg i.p. and, resp., 200 mg/kg p.o., SMA = spontaneous motor activity
Description: These compounds decrease the spontaneous motor activity and potentiate the effect of narcotics.
(§1) The tests were performed on mice. In the examination of the general behaviour the animals were treated intraperitoneally with 100 mg/kg or orally with 200 mg/kg of the compound in question. The fighting behaviour test was performed according to the method of Tedeschi et al. (J. Pharm. Exp. Ther. 25, 28 /1959/). The observations concerning the general behaviour of the animals and the ED50 values obtained in the fighting behaviour test are summarized in Table 1. In these tests 1-(3,4-dimethoxyphenyl)-4-methyl-5-ethyl-7,8-dimethoxy-5H-2,3-benzodiazepine (Grandaxin) was applied as reference substance.

mice [2] = assay: Fighting behaviour test on mice (method of Tedeschi et al.)
Description: as §1

mice [3] = assay: Narcosis potentiating activity on mice (sodium hexobarbital narcosis); settings: for Narcosis potentiating activity on mice, Relative activity: relative to Grandaxin (1.0)
Description: When studying the narcosis potentiating effect, the benzodiazepine compounds were administered to mice in oral dosages of 12.5, 25, 50 or 100 mg/kg, and 30 minutes later 50 mg/kg of sodium hexobarbital were injected intravenously into the animals. The percentage prolongation of the narcosis period, compared to the value observed in the control group treated with sodium hexobarbital alone, was calculated. In these tests Grandaxin was applied again as reference substance.

For `CCC1C(C)=NN=C(c2cccc(F)c2)c2cc(OC)c(OC)cc21` (stereo not shown) [Example 42, 1-(3-Fluorphenyl)-4-methyl-5-ethyl-7,8-dimethoxy-5H-2,3-benzodiazepine], the General behaviour (mice [1]) was “Decrease of SMA”, the ED50 (mice [2]; Mus musculus, po, mice) was 40 mg/kg and the “"Fighting behaviour" test on mice, relative activity” value (mice [2]; relative to Grandaxin (1.0), from ED50 p.o.) was 1.6. The “Narcosis potentiating activity on mice, Relative activity” value (mice [3]; 25 mg/kg p.o.) was 2.52, the “Narcosis potentiating activity on mice, Relative activity” value (mice [3]; 50 mg/kg p.o.) was 3.04 and the change in vivo at 25 mg/kg (mice [3]; Mus musculus, po, 25 mg/kg p.o., 30 minutes before 50 mg/kg sodium hexobarbital i.v., prolongation vs control, read-out: Narcosis potentiating activity on mice, Increase, %) was 204%. It also gave a change in vivo at 50 mg/kg (mice [3]; Mus musculus, po, 50 mg/kg p.o., 30 minutes before 50 mg/kg sodium hexobarbital i.v., prolongation vs control, read-out: Narcosis potentiating activity on mice, Increase, %) of 347%.
